From US8778337B2, “Use of S-adenosylmethionine (SAM) and superoxide dismutase (SOD) for the preparation of medicaments for the treatment of alzheimer's disease” (Gnosis S.p.A., priority 2008, dated 2014)
One block for each molecule: values may come before it.

Key:
PS1 [1] = test: PS1 gene expression in brains of mice on a vitamin B-deprived diet (real-time PCR); format: in vivo; details: TgCRND8 mice and wild-type controls, SAM 400 μg/day, brain cDNA normalised to β-actin, FIG. 1, even lower than control diet
Experimental: (§1) In particular, the effect of SAM was tested at pharmacological concentrations (400 μg/day) on TgCRND8 mice and the corresponding wild-type controls.
(§2) RNA was extracted from cell cultures and homogenised brains, and cDNA was synthesised. 0.5 μg of total cDNA was used for each real-time reaction on an Opticon2 DNA Engine (MJ Research) using SYBR-Green reagents. The amplification efficiency for each pair of primers was previously determined by amplification of a standard linear curve. The experimental samples were compared with a standard curve of a specific gene to determine the quantity of specific cDNA present in the standard reaction. The standards were obtained from highly purified PCR products amplified by positive controls. The total cDNA levels were normalised to the β-actin control (gene housekeeping).

PS1 [2] = test: Preliminary experiments: PS1 expression in SK-N-SH neuroblastoma line in vitamin B-deprived medium; format: cell-based; details: medium deprived of folate, vitamin B12 and vitamin B6, SAM at various concentrations, published
Experimental: (§3) Preliminary experiments have been performed on a neuroblastoma line (SK-N-SH) which expresses APP, PS1, PS2, BACE, alpha-secretase, the other components of gamma-secretase, and Notchl. The cultures were treated with a culture medium deprived of folate, vitamin B12 and vitamin B6 (in order to alter the metabolism of homocysteine), to which SAM was added at various concentrations (to balance the effects of vitamin deprivation). […] In experiments conducted with HpaII/PCR on APP and PS1 promoters, we found a major difference in the methylation of one of the CpG sites of the PS1 promoter. We concluded that the PS1 gene can be partly silenced by administration of exogenous SAM. The administration of SAM can reduce PS1 expression, restoring the metabolic balance in favour of alpha-secretase. Experiments have also been conducted with transgenic mice of the strain TgCRND8, and corresponding controls; these mice are characterised by the presence of the human mutated APP gene, and can therefore develop amyloid plaques in a short time. These animals were fed on a complete diet or a diet lacking in the vitamins of the B group; once again, as in the cells, an increase in PS1 and BACE expression was observed.

SK-N-BE cell cultures = test: SAM uptake in cell cultures (HPLC and tritiated SAM scintillation count); format: in vitro ADME, human; details: 100 μM SAM in F14 medium, 96 hours, HPLC; control 1
Experimental: For the cell cultures, 100 μM of SAM was added to the F14 cell culture medium (complete or deprived of vitamin B, according to trial design) and the cultures were stopped after 96 hours.
For the mice, 400 μg/day of SAM was administered orally by feeding probe needle, and the animals were sacrificed after 2 months; the animals were fed on a complete diet or a vitamin B-deprived diet, according to trial design. SAM levels were analysed by HPLC with a Varian HPLC system. The cells and homogenised brains were lysed in distilled water, and the macromolecules were precipitated with 1.5 M PCA. Standard SAM curves were calculated before and after the experimental samples. For the analysis of tritiated SAM, cells were treated as described above, while mice were treated for 4 days to minimise exposure to the radioactive drug. The cells and homogenised brains were lysed in distilled water. […] The uptake of radioactive SAM was measured by scintillation with a beta counter.
To establish whether the increase was due to uptake of exogenous SAM as opposed to an increase in the endogenous reserves in the presence of elevated extracellular concentrations of the molecule, a test was performed with radioactive SAM. 100 μM of tritiated SAM (SAM[3H]) was added to SK-N-BE cell cultures, and the uptake was evaluated by cell lysis and radioactivity count.

BACE [3] = test: BACE gene expression in brains of mice on a vitamin B-deprived diet (real-time PCR); format: in vivo; details: TgCRND8 mice and wild-type controls, SAM 400 μg/day, brain cDNA normalised to β-actin, FIG. 1, even lower than control diet
Experimental: as §1, §2

BACE [4] = test: Preliminary experiments: BACE expression in SK-N-SH neuroblastoma line in vitamin B-deprived medium; format: cell-based; details: medium deprived of folate, vitamin B12 and vitamin B6, SAM at various concentrations, published
Experimental: as §3

[5] = SAM uptake in mouse brain after oral administration (HPLC and tritiated SAM scintillation count); format: in vivo; details: mice, 800 μg tritiated SAM; total and cleared lysates higher
Experimental: For the mice, 400 μg/day of SAM was administered orally by feeding probe needle, and the animals were sacrificed after 2 months; the animals were fed on a complete diet or a vitamin B-deprived diet, according to trial design. SAM levels were analysed by HPLC with a Varian HPLC system. The cells and homogenised brains were lysed in distilled water, and the macromolecules were precipitated with 1.5 M PCA. Standard SAM curves were calculated before and after the experimental samples. For the analysis of tritiated SAM, cells were treated as described above, while mice were treated for 4 days to minimise exposure to the radioactive drug. The cells and homogenised brains were lysed in distilled water. A portion of lysed brains was sonicated and centrifuged to separate membranes and cell organelles; another portion was treated with perchloric acid (PCA) after sonication to separate the macromolecules. The uptake of radioactive SAM was measured by scintillation with a beta counter.
A portion of the total brain lysates was also sonicated and centrifuged to obtain a cleared lysate (cytoplasm), and a further portion of this cleared lysate was precipitated with perchloric acid (PCA) to eliminate the proteins (soluble lysate).

BACE [6] = test: BACE gene expression in vitamin-deprived SK-N-BE neuroblastoma cells (real-time PCR); format: cell-based, human; details: FIG. 2, SOD and GSH to a lesser extent than SAM
Experimental: as §2
(§4) As homocysteine metabolism is involved in both methylation and oxidoreduction reactions, we tested the effect of various antioxidants on the expression of the two genes.

PS1 [7] = test: PS1 gene expression in vitamin-deprived SK-N-BE neuroblastoma cells (real-time PCR); format: cell-based, human; details: FIG. 2, SOD and GSH to a lesser extent than SAM
Experimental: as §2, §4

intracellular levels of SAM (SK-N-BE cell cultures): 2.5 to 3 µM
radioactivity level of soluble brain lysate (PCA-precipitated cleared lysate), as SAM [5]: ~0.5 ng
Molecule: C[S+](CC[C@H](N)C(=O)O)C[C@H]1O[C@@H](n2cnc3c(N)ncnc32)[C@H](O)[C@@H]1O (some centres unmarked) [SAM, S-adenosylmethionine]
overexpression of PS1 induced by a deprived diet in vivo (PS1 [1]): reverses the overexpression
PS1 expression after the administration of SAM (PS1 [2]): marked reduction
overexpression of BACE induced by a deprived diet in vivo (BACE [3]): reverses the overexpression
BACE expression after the administration of SAM (BACE [4]): marked reduction

B1: SOD: enzyme superoxide dismutase, obtained by fermentation from strains of Saccharomyces cerevisiae (protein, UniProt P00445 2-154, looked up)
Superoxide dismutase [Cu-Zn]: VQAVAVLKGDAGVSGVVKFEQASESEPTTVSYEIAGNSPNAERGFHIHEFGDATNGCVSAGPHFNPFKKTHGAPTDEVRHVGDMGNVKTDENGVAKGSFKDSLIKLIGPTSVVGRSVVIHAGQDDLGKGDTEESLKTGNAGPRPACGVIGLTN
overexpression of BACE induced by vitamin deprivation (BACE [6]): inhibit overexpression
overexpression of PS1 induced by vitamin deprivation (PS1 [7]): inhibit overexpression
